Assay results taken from US20240239806A1, “COMPOUNDS, COMPOSITIONS AND METHODS OF TREATING DISORDERS” (Chengdu Anticancer Bioscience, Ltd., priority 2021, published 2024).
Like-named read-outs stand apart in the source and are kept apart here.

Assays:
Format in all cases: cell-based
[1] = tested on: RPEMYC^H2B-GFP cells; test: Phenotypic screening assay (mitotic arrest, polyploidy); details: 1 nM to 30 μM; for IC50: read-out: Proliferative arrest (>50%)
How it was run: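 RPE cells expressing MYC and H2B-EGFP treated with compound at 1 nM–30 μM; mitotic index scored at 24 h and polyploidy (DNA content) at 48 h by automated imaging, with reads at 24, 48 or 72 h. Hits show transient mitotic arrest followed by polyploid accumulation.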

[2] = tested on: A549; test: MECP in cancer cell line; details: Homo sapiens
Experimental: (§1) Six lung cancer cell lines (NCI-H23, NCI-H460, NCI-H596, NCI-H2170, Calu-6 and A549), two colon cancer cell lines (HCT116 and SW460), one breast cancer cell line MDA-MB-231, one gastric cancer cell line NCI-N87, one prostate cancer cell line DU145, one cervical cancer cell line Hela, and one glioblastoma cell line T98G were obtained from ATCC. The T2 HCC cell line was derived from a mouse liver cancer model initiated by a transgene of MYC. All cell lines were cultured in DMEM (Gibco, Cleveland, TN, USA) supplemented with 5% fetal bovine serum (Gibco), penicillin (100 U/mL)—streptomycin (100 μg/mL) (Gibco, Cat. No. 15140-122), 2 mM L-glutamine (Gibco, 200 mM solution, Cat. No. 25030081), and 1 mM sodium pyruvate (Gibco, 100 mM solution, Cat. No. 11360070) at 37° C. in a humidified incubator that was maintained at 5% CO2.
(§2) We have previously developed a mechanism-informed phenotypic screening assay to identify novel antimitotic agents. Equipped with a prior understanding of the versatile functions of the chromosomal passenger protein (CPP) complex in orchestrating karyokinesis and cytokinesis, the screening assay is to score for phenotypes typically seen when the CPP complex is disabled. Specifically, the parameters for a positive hit are a temporary elevation of mitotic index (MI) at 24 hours of drug treatment and an accumulation of polyploid cells at 48 hours of drug treatment, indicative of mitotic arrest and cytokinetic failure respectively. These parameters exclude compounds that elicit only a prolonged arrest of cells in mitosis, a phenotype typically provoked by spindle toxins. The screening procedure is briefly summarized here. RPEMYC^H2B-GFP cells engineered to express a Histone 2B-EGFP fusion protein were passaged as batches of 96-well plates, 18-24 hours before exposure to the chemical compounds of the present disclosure at concentrations from 1 nM to 30 μM. At 24, 48 or 72 hours after initiation of treatment, cells were analyzed for either an arrest in mitosis or a change in DNA content by GE IN-Cell Analyzer 2000. As set forth in Table 2 below, a value of greater than or equal to 1 nM and less than or equal to 1.0 μM is marked “A”; a value greater than 1.00 μM and less than or equal to 10.0 μM is marked “B”; a value greater than 10.0 μM and less than or equal to 30.0 μM is marked “C”; and a value greater than 30.0 μM is marked “D.”

[3] = tested on: HCT116; test: MECP in cancer cell line; details: Homo sapiens, HCT-116
Experimental: as §1, §2

[4] = tested on: Hela; test: MECP in cancer cell line; details: Homo sapiens
Experimental: as §1, §2

[5] = tested on: MDA-MB-231; test: MECP in cancer cell line; details: Homo sapiens
Experimental: as §1, §2

[6] = tested on: SW480; test: MECP in cancer cell line; details: Homo sapiens
Experimental: as §1, §2

[7] = tested on: T2 HCC; test: MECP in cancer cell line; details: Mus musculus
Experimental: as §1, §2

[8] = tested on: NCI-H23; test: MECP in cancer cell line; details: Homo sapiens
Experimental: as §1, with “CO2. […]” for “CO2.”

[9] = tested on: NCI-N87; test: MECP in cancer cell line; details: Homo sapiens
Experimental: as §1, with “CO2. […]” for “CO2.”

[10] = tested on: A549; test: MTT assay of cellular proliferation; details: Homo sapiens, 50% inhibition of cellular proliferation
Experimental: as §1
(§3) The MTT assay measures cellular metabolic activity as a proxy for cell viability and involves the conversion of the water-soluble yellow dye MTT [3-(4,5-dimethylthiazol-2-yl)-2,5-diphenyltetrazolium bromide] into an insoluble purple formazan by the action of mitochondrial reductase. Formazan is then solubilized and its concentration is determined by measuring the optical density (OD) value at a wavelength of 570 nm. The value is in proportional to the number of live cells with excellent linearity up to ˜10^6 cells per well. The MTT assay was used to determine the EC50 value, the concentration of a compound that leads to 50% inhibition of cellular proliferation. Briefly, cells were split when growing to the mid-Log phase. Cells in 100 μL of culture medium were seeded into each well of 96-well microplates and cultivated for 15-24 hours to reach a confluence of 20-30% and were then exposed to drugs at concentrations ranging from 1 nM to 30 μM. At the endpoint, 20 μL of a MTT stock solution in DMSO (5 mg/mL) was added to each well that contains 100 μL of DMEM. The microplates were left in the cell culture incubator for 3-4 h before subjected to solubilization and determination of formazan at A570 in a microplate reader (BioTek ELX808iu). […] Therefore, these compounds might hold a broad utility in the treatment of a large variety of human malignancies.

[11] = tested on: HCT116; test: MTT assay of cellular proliferation; details: Homo sapiens, HCT-116, 50% inhibition of cellular proliferation
Experimental: as §1, §3

[12] = tested on: Hela; test: MTT assay of cellular proliferation; details: Homo sapiens, 50% inhibition of cellular proliferation
Experimental: as §1, §3

[13] = tested on: MDA-MB-231; test: MTT assay of cellular proliferation; details: Homo sapiens; MDA-MB-231, MTT, 50% inhibition of cellular proliferation
Experimental: as §1, §3

[14] = tested on: NCI-H23; test: MTT assay of cellular proliferation; details: Homo sapiens, 50% inhibition of cellular proliferation
Experimental: as §1, §3

[15] = tested on: NCI-N87; test: MTT assay of cellular proliferation; details: Homo sapiens, 50% inhibition of cellular proliferation
Experimental: as §1, §3

[16] = tested on: SW480; test: MTT assay of cellular proliferation; details: Homo sapiens, 50% inhibition of cellular proliferation
Experimental: as §1, §3

[17] = tested on: T2 HCC; test: MTT assay of cellular proliferation; details: Mus musculus, 50% inhibition of cellular proliferation
Experimental: as §1, §3

[18] = read-out: Min. Effective conc. for Polyploidy (≥5%)

| EC50 [10] [nM] | EC50 [11] [nM] | EC50 [12] [nM] | EC50 [13] [nM] | EC50 [14] [nM] | EC50 [16] [nM] | EC50 [17] [nM] | Structure (SMILES) | minimal effective concentration [1, 18] [µM] | minimal effective concentration ([1]; read-out: Mitotic Arrest (≥5%)) [µM] | IC50 [1] [nM] | minimal effective concentration [2] [µM] | minimal effective concentration [3] [µM] | minimal effective concentration [4] [µM] | minimal effective concentration [5] [µM] | minimal effective concentration [6] [µM] | minimal effective concentration [7] [µM] | minimal effective concentration [8] [µM] | minimal effective concentration [9] [µM] | EC50 [15] [nM] |
| --- | --- | --- | --- | --- | --- | --- | --- | --- | --- | --- | --- | --- | --- | --- | --- | --- | --- | --- | --- |
| 1 to 1000 | 1 to 1000 | 1 to 1000 | 1 to 1000 | 1 to 1000 | 1 to 1000 | 1 to 1000 | COc1cc(Oc2ncnc3cc[nH]c23)cc(-n2cccn2)c1 [Compound 35, 4-(3-methoxy-5-(1H-pyrazol-1-yl)phenoxy)-5H-pyrrolo[3,2-d]pyrimidine] | 0.001 to 1 | 0.001 to 1 | 1 to 1000 | 0.001 to 1 | 0.001 to 1 | 0.001 to 1 | 0.001 to 1 | 0.001 to 1 | 0.001 to 1 | 0.001 to 1 | 0.001 to 1 | 1 to 1000 |
| 1000 to 10000 | 1000 to 10000 | 1 to 1000 | 1 to 1000 | 1 to 1000 | 1000 to 10000 | 1000 to 10000 | COC(=O)c1cc2c(Oc3cc(OC)cc(-n4cccn4)c3)ccnc2cc1OC [Compound 32, methyl 7-methoxy-4-(3-methoxy-5-(1H-pyrazol-1-yl)phenoxy)quinoline-6-carboxylate] | 0.001 to 1 | 0.001 to 1 | 1 to 1000 | 0.001 to 1 | 0.001 to 1 | 0.001 to 1 | 1 to 10 | 0.001 to 1 | 0.001 to 1 | 0.001 to 1 | 1 to 10 | 1000 to 10000 |
